From ChEMBL document CHEMBL1140736, “High-throughput log P determination by ultraperformance liquid chromatography: a convenient tool for medicinal chemists” (J Med Chem, 2008)

Assays:
[1] = Partition coefficient, log P by UPLC method; type: physicochemical; conditions: octanol/water
[2] = Partition coefficient, log P of the compound; type: physicochemical; conditions: octanol/water

Row | Structure (SMILES) | logP [1] | logP [2]
1 | C=CCc1ccccc1OCC(O)CNC(C)C (stereo not drawn) [ALPRENOLOL] | 3.4 | 
2 | CC(C)NCC(O)COc1ccc(COCCOC(C)C)cc1 (stereo not drawn) [BISOPROLOL] | 2.6 | 2.15
3 | CCCCN(CCCC)CCCOC(=O)c1ccc(N)cc1 [BUTACAINE] | 4.7 | 4.26
4 | CCCCOc1cc(C(=O)NCCN(CC)CC)c2ccccc2n1 [DIBUCAINE] |  | 4.19
5 | COCCc1ccc(OCC(O)CNC(C)C)cc1 (stereo not drawn) [METOPROLOL] | 2.2 | 
6 | CC(C)NCC(O)COc1cccc2[nH]ccc12 (stereo not drawn) [PINDOLOL] | 1.9 | 1.83

Next, values leading:

Row | logP [1] | logP [2] | Structure (SMILES)
7 | 3.8 | 3.72 | CCCCN1CCCCC1C(=O)Nc1c(C)cccc1C (stereo not drawn) [BUPIVACAINE]
8 | 3.4 | 3.73 | CC(C)NCC(O)COc1cccc2[nH]c3ccccc3c12 (stereo not drawn) [CARAZOLOL]
9 | 2.2 |  | Cc1cccc(C)c1NC(=O)C1CCCCN1C (stereo not drawn) [MEPIVACAINE]
10 | 3 | 2.81 | CC(=O)Oc1c(C)cc(OCC(O)CNC(C)C)c(C)c1C (stereo not drawn) [METIPRANOLOL]
11 | 2.6 | 2.51 | C=CCOc1ccccc1OCC(O)CNC(C)C (stereo not drawn) [OXPRENOLOL]
12 | 2.3 | 2.12 | CCCNC(C)C(=O)Nc1ccccc1C (stereo not drawn) [PRILOCAINE]
13 | 2.1 | 2.03 | CCN(CC)CCOC(=O)c1ccc(N)cc1 [PROCAINE]
14 |  | 3.39 | CCCCNc1ccc(C(=O)OCCN(C)C)cc1 [TETRACAINE]
